# From patent US11530206B2, “Phenylaminopyrimidine amide autophagy inhibitors and methods of use thereof” (Deciphera Pharmaceuticals, LLC, priority 2019, dated 2022)
# pIC50: −log10 of the molar value.
# Columns and labels:
# ULK2 kinase = molecular target: T1, ULK2 kinase (Homo sapiens, UniProt Q8IYT8); assay: Biochemical assay for ULK2 (coupled pyruvate kinase/lactate dehydrogenase assay); settings: 9.7 nM ULK2 (residues 1-306, GST and His tag), myelin basic protein, 1 mM ATP; read-out: ULK2.2
# T1 construct: purchased Eurofins 14-772
# Description: Example 132. Biochemical Assay for ULK2 (SEQ. ID NO: 3)
# Activity of ULK2 kinase was determined spectroscopically using a coupled pyruvate kinase/lactate dehydrogenase assay that continuously monitors the ATP hydrolysis-dependent oxidation of NADH (e.g., Schindler et al. Science (2000) 289: 1938-1942). Assays were conducted in 384-well plates (100 uL final volume) using 9.7 nM ULK2 (Eurofins CAT #14-772), 0.25 mg/mL myelin basic protein, 1.5 units pyruvate kinase, 2.1 units lactate dehydrogenase, 1 mM phosphoenol pyruvate, 0.28 mM NADH and 1 mM ATP in assay buffer (100 mM Tris, pH 7.5, 15 mM MgCl2, 0.5 mM DTT, 0.1% octyl-glucoside, 0.002% (w/v) BSA, and 0.002% Triton X-100). Inhibition of ULK2 was measured by adding serial diluted test compound (final assay concentration of 1% DMSO). A decrease in absorption at 340 nm was monitored continuously for 6 hours at 30° C. on a multi-mode microplate reader (BioTek). The reaction rate was calculated using the 2-3 h time frame. The reaction rate at each concentration of compound was converted to percent inhibition using controls (i.e. reaction with no test compound and reaction with a known inhibitor) and IC50 values were calculated by fitting a four-parameter sigmoidal curve to the data using Prism (GraphPad software).
# LRRK2 kinase = molecular target: T2, LRRK2 kinase (Homo sapiens, UniProt Q5S007); assay: Biochemical assay for LRRK2 (coupled pyruvate kinase/lactate dehydrogenase assay); settings: 26.4 nM LRRK2 (residues 970-2528), peptide substrate, 1 mM ATP
# T2 construct: purchased Thermo Fisher
# Procedure, shortened: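 Recombinant LRRK2 (26.4 nM) with 0.1 mM peptide substrate and 1 mM ATP in Tris pH 7.5/MgCl2 buffer; ADP production coupled via PK/LDH to NADH oxidation, A340 read continuously 6 h at 30 °C. Rates from 2–3 h window converted to % inhibition versus no-compound and reference-inhibitor controls; IC50 fitted.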
# ULK1 kinase [1] = molecular target: T3, ULK1 kinase (Homo sapiens, UniProt O75385); assay: Biochemical assay for ULK1.2 (coupled pyruvate kinase/lactate dehydrogenase assay); settings: 19 nM ULK1 (residues 1-314, His tag), myelin basic protein, 1 mM ATP
# T3 construct: purchased Eurofins 14-959
# T3 sequence (O75385 with tags, fused parts or gaps): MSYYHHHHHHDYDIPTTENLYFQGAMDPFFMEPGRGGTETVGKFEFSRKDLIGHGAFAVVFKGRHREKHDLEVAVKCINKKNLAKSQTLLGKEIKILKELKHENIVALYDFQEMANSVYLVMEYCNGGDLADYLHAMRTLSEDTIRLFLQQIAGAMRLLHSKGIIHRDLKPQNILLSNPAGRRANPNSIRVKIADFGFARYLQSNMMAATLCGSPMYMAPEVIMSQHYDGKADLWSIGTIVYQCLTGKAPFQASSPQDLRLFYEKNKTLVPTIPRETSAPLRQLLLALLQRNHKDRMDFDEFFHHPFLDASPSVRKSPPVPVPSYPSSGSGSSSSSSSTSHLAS
# Description: Biochemical Assay for ULK1.2 (SEQ. ID NO: 1)
# Inhibition of ULK1 was measured by adding serial diluted test compound (final assay concentration of 1% DMSO). A decrease in absorption at 340 nm was monitored continuously for 6 hours at 30° C. on a multi-mode microplate reader (BioTek). The reaction rate was calculated using the 2-3 h time frame. The reaction rate at each concentration of compound was converted to percent inhibition using controls (i.e. reaction with no test compound and reaction with a known inhibitor) and IC50 values were calculated by fitting a four-parameter sigmoidal curve to the data using Prism (GraphPad software).
# ULK kinase [2] = assay: pATG13 levels of mutant KRas HCT-116 cells after treatment with ULK inhibitors in combination with trametinib (ELISA); type: cell-based, human; settings: HCT-116 colon cancer cells, 250 nM trametinib, overnight, pS318-ATG13
# Description: The following day, 10 μL of media containing trametinib or DMSO as a control was added to wells. […] A dose response of a test compound (0.6 μL per well) was added. DMSO (0.6 μL) was added to control wells. The plate was briefly shaken to mix wells and then incubated at 37° C. overnight. The next day, the media was aspirated and cells were washed with Dulbecco's Phosphate Buffered Saline (Gibco). Cells were lysed using MPER lysis buffer (Pierce, Rockford, Ill.) containing Halt Phosphatase and Protease Inhibitors (Pierce, Rockford, Ill.) and Phosphatase inhibitor cocktail 2 (Sigma, St. Louis, Mo.) at 4° C. for 10 minutes with shaking.
# (§1) Plate wells were washed with ELISA wash buffer. Cell lysate was added to wells and incubated at room temperature for 2 hours. Plate wells were washed with ELISA wash buffer. […] Plate wells were washed with ELISA wash buffer. […] Plate wells were washed with ELISA wash buffer. […] The reaction was stopped with 2N Sulfuric Acid. The plate was analyzed at on a plate reader measuring absorbance at 450 nm and 540 nm (background). Signal was calculated by first subtracting the background absorbance at 540 nm from the absorbance at 450 nm for each well. Next, the background corrected absorbance at 450 nm from blank wells was subtracted from test wells. Data was compared to control wells to determine % ATG13 phosphorylation. GraphPad Prism was used to calculate IC50 values.
# ULK kinase [3] = assay: pATG13 levels of mutant KRas MiaPaCa-2 cells after treatment with ULK inhibitors in combination with trametinib (ELISA); type: cell-based, human; settings: MiaPaCa-2 pancreatic cancer cells, 250 nM trametinib, overnight, pS318-ATG13
# Procedure, shortened: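 MiaPaCa-2 cells in DMEM with 10% FBS and 2.5% horse serum were pretreated with trametinib or DMSO, then given a test-compound dose response overnight at 37° C. Lysates were assayed for phospho-ATG13 by ELISA (A450 minus A540 background, blank-corrected). % phosphorylation was calculated relative to controls and fitted to IC50.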
# ULK kinase [4] = assay: pATG13 levels of mutant KRas A549 cells after treatment with ULK inhibitors in combination with trametinib (ELISA); type: cell-based, human; settings: A549 (KRAS mutant) lung cancer cells, 250 nM trametinib, overnight, pS318-ATG13
# Procedure, shortened: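 Lysates with phosphatase/protease inhibitors assayed by pATG13 ELISA, A450 minus A540 background and blank-corrected. % ATG13 phosphorylation versus DMSO controls fitted to IC50.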
# ULK1 kinase [5] = molecular target: T4, ULK1 kinase (Homo sapiens, UniProt O75385, E37A/K38A); assay: Biochemical assay for ULK1.3 (coupled pyruvate kinase/lactate dehydrogenase assay, peptide substrate); settings: 0.1 nM ULK1 (residues 1-283), 1 mM ATP
# T4 construct: purchased Beryllium
# T4 sequence (O75385 1-283 E37A/K38A): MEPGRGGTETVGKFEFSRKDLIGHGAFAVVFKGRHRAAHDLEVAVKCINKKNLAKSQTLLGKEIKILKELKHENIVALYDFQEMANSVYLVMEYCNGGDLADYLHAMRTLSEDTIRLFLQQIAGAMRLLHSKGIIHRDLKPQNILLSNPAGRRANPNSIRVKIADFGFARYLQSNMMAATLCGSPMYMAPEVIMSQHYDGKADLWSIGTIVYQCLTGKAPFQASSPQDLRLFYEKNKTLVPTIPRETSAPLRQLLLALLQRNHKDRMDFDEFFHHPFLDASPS
# Procedure, shortened: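 ULK1.3 activity was followed by continuous decrease in 340 nm absorbance over 6 h at 30 °C with 1% DMSO final. Rates were taken from the 2–3 h window and converted to percent inhibition against no-compound and known-inhibitor controls. IC50 values came from curve fitting.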
# ULK kinase [6] = assay: pATG13 levels of mutant BRAF A375 cells after treatment with ULK inhibitors in combination with trametinib (ELISA); type: cell-based, human; settings: A375 malignant melanoma cells (mutant BRAF), 250 nM trametinib, overnight, pS318-ATG13
# Description: A375 human malignant melanoma cancer cells (20000 cells/well) were added to a 96-well tissue-culture treated plate in 100 μL of pre-warmed DMEM medium supplemented with 10% characterized fetal bovine serum (Invitrogen, Carlsbad, Calif.), 100 units/mL penicillin G, and 100 μg/mL streptomycin and allowed to grow overnight at 37° C., 5% CO2, and 95% humidity. The following day, 100 μL of media containing trametinib or DMSO as a control was added to wells. […] A dose response of a test compound (0.5 μL per well) was added. DMSO (0.5 μL) was added to control wells. The plate was briefly shaken to mix wells and then incubated at 37° C. overnight. The next day, the media was aspirated and cells were washed with Dulbecco's Phosphate Buffered Saline (Gibco). Cells were lysed using MPER lysis buffer (Pierce, Rockford, Ill.) containing Halt Phosphatase and Protease Inhibitors (Pierce, Rockford, Ill.) and Phosphatase inhibitor cocktail 2 (Sigma, St. Louis, Mo.) at 4° C. for 10 minutes with shaking.
# as §1
# T2 sequence (Q5S007 with tags, fused parts or gaps): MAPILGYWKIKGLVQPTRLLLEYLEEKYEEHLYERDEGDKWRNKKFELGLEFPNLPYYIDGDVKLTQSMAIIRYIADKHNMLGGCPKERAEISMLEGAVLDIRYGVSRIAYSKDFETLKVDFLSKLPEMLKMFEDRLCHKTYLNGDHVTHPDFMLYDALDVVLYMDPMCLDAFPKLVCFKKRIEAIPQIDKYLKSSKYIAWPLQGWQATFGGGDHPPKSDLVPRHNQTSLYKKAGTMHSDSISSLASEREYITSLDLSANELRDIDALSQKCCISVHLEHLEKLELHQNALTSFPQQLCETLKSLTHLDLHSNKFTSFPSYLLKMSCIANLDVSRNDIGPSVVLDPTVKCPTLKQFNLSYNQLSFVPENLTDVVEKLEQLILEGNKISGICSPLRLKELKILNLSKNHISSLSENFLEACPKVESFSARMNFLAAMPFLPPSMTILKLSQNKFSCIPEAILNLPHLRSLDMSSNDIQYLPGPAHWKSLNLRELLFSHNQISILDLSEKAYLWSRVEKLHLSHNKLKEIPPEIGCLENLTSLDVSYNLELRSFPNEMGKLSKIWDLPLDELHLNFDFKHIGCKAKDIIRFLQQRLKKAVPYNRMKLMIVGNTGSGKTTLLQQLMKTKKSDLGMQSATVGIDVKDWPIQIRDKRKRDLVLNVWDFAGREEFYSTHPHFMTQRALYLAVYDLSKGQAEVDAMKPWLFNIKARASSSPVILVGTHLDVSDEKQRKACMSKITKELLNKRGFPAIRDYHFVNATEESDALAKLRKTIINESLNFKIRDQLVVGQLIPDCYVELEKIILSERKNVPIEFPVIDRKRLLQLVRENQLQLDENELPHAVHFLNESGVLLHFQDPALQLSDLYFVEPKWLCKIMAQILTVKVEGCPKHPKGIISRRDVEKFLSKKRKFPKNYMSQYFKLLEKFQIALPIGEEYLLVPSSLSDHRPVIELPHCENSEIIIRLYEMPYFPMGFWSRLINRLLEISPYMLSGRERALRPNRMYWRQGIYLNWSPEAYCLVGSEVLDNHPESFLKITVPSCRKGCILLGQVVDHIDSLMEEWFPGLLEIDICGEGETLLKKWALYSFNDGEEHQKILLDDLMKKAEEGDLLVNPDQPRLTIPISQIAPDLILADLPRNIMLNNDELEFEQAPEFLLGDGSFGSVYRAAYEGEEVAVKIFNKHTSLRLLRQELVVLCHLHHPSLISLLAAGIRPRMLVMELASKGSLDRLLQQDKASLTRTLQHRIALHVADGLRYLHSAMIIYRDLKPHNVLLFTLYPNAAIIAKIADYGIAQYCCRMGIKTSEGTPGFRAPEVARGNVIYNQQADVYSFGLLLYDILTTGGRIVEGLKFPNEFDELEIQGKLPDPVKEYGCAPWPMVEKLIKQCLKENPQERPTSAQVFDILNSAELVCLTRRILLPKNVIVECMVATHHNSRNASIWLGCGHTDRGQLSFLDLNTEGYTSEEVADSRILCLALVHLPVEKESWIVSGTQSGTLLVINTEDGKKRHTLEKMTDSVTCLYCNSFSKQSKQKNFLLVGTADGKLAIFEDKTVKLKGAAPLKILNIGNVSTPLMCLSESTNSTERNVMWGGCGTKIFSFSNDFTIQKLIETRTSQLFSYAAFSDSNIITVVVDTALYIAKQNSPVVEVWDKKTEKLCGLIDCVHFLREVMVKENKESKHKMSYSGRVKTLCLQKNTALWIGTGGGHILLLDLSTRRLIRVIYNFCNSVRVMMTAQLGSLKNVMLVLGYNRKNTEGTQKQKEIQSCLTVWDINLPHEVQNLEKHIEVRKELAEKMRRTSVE
# T1 sequence (Q8IYT8 with tags, fused parts or gaps): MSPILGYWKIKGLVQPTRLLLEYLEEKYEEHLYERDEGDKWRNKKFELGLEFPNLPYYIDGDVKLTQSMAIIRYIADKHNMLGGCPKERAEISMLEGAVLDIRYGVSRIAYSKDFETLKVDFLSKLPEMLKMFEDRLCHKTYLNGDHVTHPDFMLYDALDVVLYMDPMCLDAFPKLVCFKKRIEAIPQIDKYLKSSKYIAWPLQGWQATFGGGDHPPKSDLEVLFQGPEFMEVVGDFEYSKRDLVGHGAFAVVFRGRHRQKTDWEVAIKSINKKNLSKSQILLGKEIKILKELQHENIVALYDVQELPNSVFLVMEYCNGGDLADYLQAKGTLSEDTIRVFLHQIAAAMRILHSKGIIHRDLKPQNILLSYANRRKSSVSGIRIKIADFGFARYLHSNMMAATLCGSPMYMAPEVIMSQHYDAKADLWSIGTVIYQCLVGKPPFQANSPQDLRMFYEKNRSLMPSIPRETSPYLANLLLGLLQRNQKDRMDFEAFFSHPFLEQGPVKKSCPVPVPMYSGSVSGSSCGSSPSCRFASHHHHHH
SMILES,pIC50 (ULK2 kinase),pIC50 (LRRK2 kinase),pIC50 (ULK1 kinase [1]),pIC50 (ULK kinase [2]),pIC50 (ULK kinase [3]),pIC50 (ULK kinase [4]),pIC50 (ULK1 kinase [5]),pIC50 (ULK kinase [6])
Cc1cc(N2CCN(CCF)CC2)ccc1Nc1ncc(C(F)(F)F)c(NCCCN2CCCCC2=O)n1 [Example 18],7.00 to 7.60,7.00 to 9.00,6.30 to 7.00,–,–,–,–,–
Cc1cc(N2CCN(C)CC2)ccc1Nc1ncc(C(F)(F)F)c(NCCCN2CCCCC2=O)n1 [Example 20],7.00 to 7.60,–,7.60 to 9.00,6.52 to 7.00,6.52 to 7.00,6.22 to 6.52,–,–
Cc1cc(N2CCNCC2)ccc1Nc1ncc(C(F)(F)F)c(NCCCN2CCCOC2=O)n1 [Example 37],–,6.52 to 7.00,–,–,7.00 to 8.00,6.52 to 7.00,7.60 to 9.00,6.22 to 6.52
CCc1cc(N2CCOCC2)ccc1Nc1ncc(C(F)(F)F)c(NCCCN2CCCOCC2=O)n1 [Example 50],< 6.30,7.00 to 9.00,6.30 to 7.00,–,< 6.22,< 6.22,–,–
O=C1COCCCN1CCCNc1nc(Nc2ccc(N3CCOCC3)cc2C2CC2)ncc1C(F)(F)F [Example 51],< 6.30,7.00 to 9.00,6.30 to 7.00,–,–,–,–,–
CCc1cc(N2CCN(C)CC2)ccc1Nc1ncc(C(F)(F)F)c(NCCCN2CCCOCC2=O)n1 [Example 54],7.00 to 7.60,–,7.60 to 9.00,7.00 to 8.00,7.00 to 8.00,7.00 to 8.00,–,–
CCc1cc(N2CCN(C)CC2)ccc1Nc1ncc(Cl)c(NCCCN2CCCOCC2=O)n1 [Example 58],< 6.30,6.52 to 7.00,6.30 to 7.00,7.00 to 8.00,7.00 to 8.00,6.52 to 7.00,–,–
CCc1cc(N2CC3CCC(C2)N3C)ccc1Nc1ncc(C(F)(F)F)c(NCCCN2CCCOC2=O)n1 [Example 69],–,6.22 to 6.52,–,7.00 to 8.00,7.00 to 8.00,7.00 to 8.00,7.60 to 9.00,–
Cc1cc(N2CCNCC2)ccc1Nc1ncc(C(F)(F)F)c(NCCCN2CCOCCC2=O)n1 [Example 75],–,–,–,6.52 to 7.00,7.00 to 8.00,6.52 to 7.00,7.60 to 9.00,6.52 to 7.00
O=C1CCOCCN1CCCNc1nc(Nc2ccc(N3CCNCC3)cc2C2CC2)ncc1C(F)(F)F [Example 85],–,–,–,6.52 to 7.00,7.00 to 8.00,7.00 to 8.00,7.60 to 9.00,6.52 to 7.00
Cc1cc(N2CCOCC2)ncc1Nc1ncc(C(F)(F)F)c(NCCCN2CCCCC2=O)n1 [Example 90],< 6.30,6.22 to 6.52,< 6.30,–,–,–,–,–
Cc1cc(N2CCN(C)CC2)ncc1Nc1ncc(C(F)(F)F)c(NCCCN2CCCCC2=O)n1 [Example 91],6.30 to 7.00,–,7.00 to 7.60,–,< 6.22,6.52 to 7.00,7.00 to 7.60,–
CCc1cc(N2CCN3CCC[C@@H]3C2)ccc1Nc1ncc(C(F)(F)F)c(NCCCN2CCOCCC2=O)n1 [Example 105],–,7.00 to 9.00,–,7.00 to 8.00,7.00 to 8.00,7.00 to 8.00,7.60 to 9.00,–
CCc1cc(N2CCN3CCC[C@@H]3C2)ccc1Nc1ncc(C(F)(F)F)c(NCCCN2CCCOC2=O)n1 [Example 106],–,6.52 to 7.00,–,7.00 to 8.00,7.00 to 8.00,7.00 to 8.00,7.60 to 9.00,–
Cc1cc(-c2cnn(C)c2)ccc1Nc1ncc(C(F)(F)F)c(NCCCN2CCCCC2=O)n1 [Example 108],< 6.30,7.00 to 9.00,< 6.30,–,–,–,–,–
Cc1cc(-c2cn(C)cn2)ccc1Nc1ncc(C(F)(F)F)c(NCCCN2CCOCCC2=O)n1 [Example 109],< 6.30,7.00 to 9.00,< 6.30,–,–,< 6.22,–,–
